Reference: US11603356B2, “Amorphous form of a complement component C5a receptor” (CHEMOCENTRYX, INC., priority 2019, dated 2023)
In brackets after ≈: the same amount, converted by molar mass.

Legend:
[1] = Kinetic solubility in 0.1 N HCl, FaSSGF and FeSSIF at 37° C.; type: physicochemical
Procedure: The in vitro solubility of a crystalline form of Compound 1 and the amorphous form of Compound 1 was tested.
The amorphous form was prepared as described in Example 2, Method 1, and the crystalline form of Compound 1 was prepared as described in Example 1.
Crystalline and amorphous forms of Compound 1 were saturated in three different media: 0.1 N HCl solution, Fasted State Simulated Gastric Fluid (FaSSGF), and Fed State Simulated Intestinal Fluid (FeSSIF). The samples were shaken inside a 37° C. water bath at 40 rpm. The concentration of Compound 1 dissolved in these samples was measured by HPLC at four different time points (0.5, 1, 2 and 4 hours).

[2] = In vivo rat PK study, oral aqueous liquid suspension formulation; conditions: oral 10 mg/kg
Procedure: An in vivo rat PK study was conducted to compare the PK profile and bioavailability of crystalline form against amorphous form of Compound 1 in an aqueous liquid suspension formulation, which contained 0.5% w/v Hydroxypropyl Cellulose (Klucel GF grade) and 0.5% w/v Poloxamer F-68 (BASF Kolliphor P188). Each animal was orally administrated 10 mg/kg of Compound 1 at 5 mL/kg dosing volume (a dosing concentration of 2 mg/mL).

[3] = Solubility in IV formulation saline/PEG400/Tween80; type: physicochemical; conditions: saline/PEG400/Tween80 (88:10:1)
Procedure: Intravenous (IV) formulations of a crystalline form of Compound 1 and the amorphous form of Compound 1 were prepared by contacting the amorphous of crystalline Compound 1 with saline/PEG400/Tween80 (88:10:1). The crystalline form of Compound 1 was prepared as described in Example 1, the amorphous form of Compound was prepared as described in Example 2, Method 1.

[4] = suspension in 0.5% w/v Klucel GF and 0.5% w/v Poloxamer F-68, 10 mg/kg

Cc1ccc(NC(=O)[C@H]2CCCN(C(=O)c3c(C)cccc3F)[C@H]2c2ccc(NC3CCCC3)cc2)cc1C(F)(F)F [Crystalline Compound 1, (2R,3S)-2-(4-(cyclopentylamino)phenyl)-1-(2-fluoro-6-methylbenzoyl)-N-(4-methyl-3-(trifluoromethyl)phenyl)piperidine-3-carboxamide]
CCX168 Solubility at 37° C. ([1]; 0.1N HCl (pH 1.06), 0.5 Hr.): ND (ND = Not Detected) | CCX168 Solubility at 37° C. ([1]; 0.1N HCl (pH 1.06), 1 Hr.): ND (ND = Not Detected) | CCX168 Solubility at 37° C. ([1]; 0.1N HCl (pH 1.06), 2 Hr.): ND (ND = Not Detected) | CCX168 Solubility at 37° C. ([1]; 0.1N HCl (pH 1.06), 4 Hr.): ND (ND = Not Detected) | CCX168 Solubility at 37° C. ([1]; FaSSGF (pH 1.64), 0.5 Hr.): ND (ND = Not Detected) | CCX168 Solubility at 37° C. ([1]; FaSSGF (pH 1.64), 1 Hr.): ND (ND = Not Detected) | solubility at 2 h ([1]; Fasted State Simulated Gastric Fluid (FaSSGF), 37 °C, pH 1.64, fassgf or other biorelevant, thermodynamic from solid, FaSSGF (pH 1.64), 2 Hr., read-out: CCX168 Solubility at 37° C.): < 3.1 µg/mL | solubility at 4 h ([1]; Fasted State Simulated Gastric Fluid (FaSSGF), 37 °C, pH 1.64, fassgf or other biorelevant, thermodynamic from solid, FaSSGF (pH 1.64), 4 Hr., read-out: CCX168 Solubility at 37° C.): < 3.1 µg/mL | CCX168 Solubility at 37° C. ([1]; FeSSIF (pH 4.90), 1 Hr.): ND (ND = Not Detected) | CCX168 Solubility at 37° C. ([1]; FeSSIF (pH 4.90), 2 Hr.): ND (ND = Not Detected) | CCX168 Solubility at 37° C. ([1]; FeSSIF (pH 4.90), 4 Hr.): ND (ND = Not Detected) | solubility at 0.5 h ([1]; Fed State Simulated Intestinal Fluid (FeSSIF), 37 °C, pH 4.9, fessif, thermodynamic from solid, FeSSIF (pH 4.90), 0.5 Hr., read-out: CCX168 Solubility at 37° C.): < 3.1 µg/mL | half-life ([2]; in vivo, po, 10 mg/kg, suspension in 0.5% w/v Klucel GF and 0.5% w/v Poloxamer F-68): 3.9 h | MRT ([2]; in vivo, po, 10 mg/kg, suspension in 0.5% w/v Klucel GF and 0.5% w/v Poloxamer F-68, read-out: MRT): 6 h | Tmax ([2]; in vivo, po, 10 mg/kg, suspension in 0.5% w/v Klucel GF and 0.5% w/v Poloxamer F-68, read-out: Tmax): 1.5 h | AUC0-t [2, 4]: 983 ng·h/mL | AUCinf [2, 4]: 996 ng·h/mL | Cmax [2, 4]: 129 ng/mL | Solubility in IV Formulation ([3]; 0.5 Hr.): 15.2 µg/mL (≈ 26.1 µM) | Solubility in IV Formulation ([3]; 1 Hr.): 17.2 µg/mL (≈ 29.6 µM) | Solubility in IV Formulation ([3]; 2 Hr.): 20.5 µg/mL (≈ 35.2 µM) | Solubility in IV Formulation ([3]; 4 Hr.): 21.6 µg/mL (≈ 37.1 µM) | Solubility in IV Formulation ([3]; 8 Hr.): 22.0 µg/mL (≈ 37.8 µM) | Solubility in IV Formulation ([3]; 24 Hr.): 21.9 µg/mL (≈ 37.7 µM) | Solubility in IV Formulation ([3]; 48 Hr.): 21.9 µg/mL (≈ 37.7 µM) | Solubility in IV Formulation ([3]; 96 Hr.): 21.6 µg/mL (≈ 37.1 µM)
